Literature values as cited in patent publication US8911966B2, “Efficient astaxanthin production strains derived from Haematococcus pluvialis” (Cognis IP Management GmbH, priority 2007, dated 2014).

Conditions: versus α-tocopherol

CC1=C(/C=C/C(C)=C/C=C/C(C)=C/C=C/C=C(C)/C=C/C=C(C)/C=C/C2=C(C)C(=O)C(O)CC2(C)C)C(C)(C)CC(O)C1=O (stereo not drawn) [astaxanthin, 3,3′-dihydroxy-β,β-carotene-4,4′-dione]
antioxidant activities relative to α-tocopherol (vitamin E): over 500 times
